Reference: paper PMC5843628, “Phosphorylation of conserved phosphoinositide binding pocket regulates sorting nexin membrane targeting” (Nature Communications, 2018)

Biological target: full length human SNX3 (sorting nexin 3) (Homo sapiens, UniProt O60493)
Test: NMR chemical shift perturbation titration, […]-labelled protein
Format: binding

Chain of full length human SNX3 (sorting nexin 3) (O60493 whole entry): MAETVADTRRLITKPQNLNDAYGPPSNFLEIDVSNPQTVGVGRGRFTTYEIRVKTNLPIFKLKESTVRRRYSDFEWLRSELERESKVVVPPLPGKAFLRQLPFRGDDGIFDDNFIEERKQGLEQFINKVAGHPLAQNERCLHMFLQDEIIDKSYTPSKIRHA

Kd [µM] | SMILES
170 ± 34.1 | O=P(O)(O)O[C@@H]1[C@H](O)[C@H](OP(=O)(O)O)[C@@H](O)[C@H](O)[C@H]1O [Ins(1,3)P2]
159 ± 36.1 | CCCC(=O)OC[C@H](COP(=O)(O)O[C@@H]1[C@H](O)[C@H](OP(=O)(O)O)[C@@H](O)[C@H](O)[C@H]1O)OC(=O)CCC [c4-PI3P]
